In brackets after ≈: the same amount, converted by molar mass. Read-outs that look alike come from different tables or passages of the source. Values belong to the compound of their own block, whether it stands above or below them.
Experiments:
[1] = standard animal model of analgesic activity; cited from earlier work
[2] = Pharmacokinetic testing after single intravenous administration in beagle dogs; type: in vivo; conditions: for AUC(0-inf) / AUC(0-t) / half-life / MRT last / clearance / Vd: dog, mean ± standard deviation; for AUC(0-inf) / AUC(0-t) / half-life / MRT last: plasma analyte = label; for MRT last: read-out: MRT0-t; for clearance / Vd: plasma; for Vd: read-out: Vss
Method: (§1) Representative batches of lyophilized powder injection of (S)-ketorolac described in the present application were selected to examine the drug metabolism in vivo of beagle dogs and cynomolgus monkeys. The mode of administration was single intravenous administration. The concentration of (S)-ketorolac and (R)-ketorolac in plasma samples was measured by LC-MS/MS, and the blood drug concentration-time curve was plotted to obtain the main pharmacokinetic parameters and examine the chiral transformation of (S)-ketorolac and (R)-ketorolac in animals.

[3] = Solubility of (S)-ketorolac in phosphate buffer solutions with different pH (Test Example 2); type: physicochemical; conditions: 25 °C, aqueous buffer, thermodynamic from solid, read-out: Saturation solubility at 25° C.
Method: (§2) Phosphate buffer solutions with a pH range of 6.5 to 7.8 were prepared with reference to Chinese Pharmacopoeia (2020 edition). The appropriate amount of (S)-ketorolac (free acid) was added to each phosphate buffer to prepare mixtures of about 20 mg/ml. Each solution was placed in an air bath shaker and shaken at 25° C. for 24 hours, during which the dissolution of (S)-ketorolac in each mixture was observed. The remaining samples were reserved at 25° C. and 40° C., and the formation of isomers was detected after 2 days and 30 days, as shown in Table 2.

[4] = Optical stability of (S)-ketorolac in phosphate buffer solutions with different pH values (Test Example 2); type: physicochemical
Method: as §2

[5] = in vivo; conditions: cynomolgus monkey, iv
Method: as §1

[6] = Solubility of (S)-ketorolac in solvents; type: physicochemical
[7] = single intravenous (S)-ketorolac 0.16 mg/kg
[8] = single intravenous (S)-ketorolac 3.2 mg/kg

Structure (SMILES): O=C(c1ccccc1)c1ccc2n1CCC2C(=O)O (racemic) [ketorolac tromethamine]
analgesic activity relative to that of Aspirin [1]: 800 times

AUC(0-inf) [2, 7]: 79.2 ± 57 ng·h/mL
AUC(0-t) [2, 7]: 11.7 ± 1.21 ng·h/mL
half-life [2, 7]: 1360 ± 1010 min
MRT last [2, 7]: 3.07 ± 0.144 h
AUC(0-t) [2, 8]: 724 ± 259 ng·h/mL
MRT last [2, 8]: 3.52 ± 0.33 h
Chiral transformation rate = (AUC0-t)R/[(AUC0-t)S + (AUC0-t)R] × 100 [2, 7]: 2.10%
Chiral transformation rate = (AUC0-t)R/[(AUC0-t)S + (AUC0-t)R] × 100 [2, 8]: 1.71%
Structure (SMILES): O=C(c1ccccc1)c1ccc2n1CC[C@H]2C(=O)O [(R)-ketorolac]

solubility at 24 h ([3]; phosphate buffer solution pH 6.5): 1860 µg/mL (≈ 7.29 mM)
solubility at 24 h ([3]; phosphate buffer solution pH 6.8): 3030 µg/mL (≈ 11.9 mM)
solubility at 24 h ([3]; phosphate buffer solution pH 7.0): 4090 µg/mL (≈ 16 mM)
solubility at 24 h ([3]; phosphate buffer solution pH 7.2): 4520 µg/mL (≈ 17.7 mM)
solubility at 24 h ([3]; phosphate buffer solution pH 7.4): 4720 µg/mL (≈ 18.5 mM)
solubility at 24 h ([3]; phosphate buffer solution pH 7.6): 5220 µg/mL (≈ 20.4 mM)
solubility at 24 h ([3]; phosphate buffer solution pH 7.8): ≥ 24200 µg/mL
Isomer purity determined ([4]; phosphate buffer pH 6.5, 25° C., Day 2): 0.20%
Isomer purity determined ([4]; phosphate buffer pH 6.5, 25° C., Day 30): 3.43%
Isomer purity determined ([4]; phosphate buffer pH 6.5, 40° C., Day 30): 27.90%
Isomer purity determined ([4]; phosphate buffer pH 6.8, 25° C., Day 2): 0.21%
Isomer purity determined ([4]; phosphate buffer pH 6.8, 25° C., Day 30): 3.22%
Isomer purity determined ([4]; phosphate buffer pH 6.8, 40° C., Day 30): 28.14%
Isomer purity determined ([4]; phosphate buffer pH 7.0, 25° C., Day 2): 0.22%
Isomer purity determined ([4]; phosphate buffer pH 7.0, 25° C., Day 30): 3.20%
Isomer purity determined ([4]; phosphate buffer pH 7.0, 40° C., Day 30): 27.11%
Isomer purity determined ([4]; phosphate buffer pH 7.2, 25° C., Day 2): 0.22%
Isomer purity determined ([4]; phosphate buffer pH 7.2, 25° C., Day 30): 3.34%
Isomer purity determined ([4]; phosphate buffer pH 7.2, 40° C., Day 30): 27.71%
Isomer purity determined ([4]; phosphate buffer pH 7.4, 25° C., Day 2): 0.21%
Isomer purity determined ([4]; phosphate buffer pH 7.4, 25° C., Day 30): 3.31%
Isomer purity determined ([4]; phosphate buffer pH 7.4, 40° C., Day 30): 23.91%
Isomer purity determined ([4]; phosphate buffer pH 7.6, 25° C., Day 2): 0.22%
Isomer purity determined ([4]; phosphate buffer pH 7.6, 25° C., Day 30): 3.43%
Isomer purity determined ([4]; phosphate buffer pH 7.6, 40° C., Day 30): 24.35%
Isomer purity determined ([4]; phosphate buffer pH 7.8, 25° C., Day 2): 0.51%
Isomer purity determined ([4]; phosphate buffer pH 7.8, 25° C., Day 30): 4.92%
Isomer purity determined ([4]; phosphate buffer pH 7.8, 40° C., Day 30): 21.28%
optical purity of (S)-ketorolac ([4]; samples in the solution state (phosphate buffer), stored at 25° C. for one month): greater than or equal to 95%
clearance [2, 7]: 3.22 mL/min/kg
Vd [2, 7]: 1.29 ± 0.432 L/kg
clearance [2, 8]: 0.472 mL/min/kg
Vd [2, 8]: 0.391 L/kg
AUC(0-inf) [2, 7]: 950 ± 385 ng·h/mL
AUC(0-t) [2, 7]: 545 ± 147 ng·h/mL
half-life [2, 7]: 428 ± 176 min
MRT last [2, 7]: 1.61 ± 0.4 h
AUC(0-inf) [2, 8]: 117000 ± 25900 ng·h/mL
AUC(0-t) [2, 8]: 41600 ± 3540 ng·h/mL
half-life [2, 8]: 618 ± 131 min
MRT last [2, 8]: 2.5 ± 0.149 h
Vd ([5]; 0.24 mg/kg): 0.224 ± 0.0778 L/kg
clearance ([5]; 0.24 mg/kg): 1.77 mL/min/kg
Vd ([5]; 2.4 mg/kg): 0.18 ± 0.0381 L/kg
clearance ([5]; 2.4 mg/kg): 1.7 mL/min/kg
solubility in anhydrous ethanol ([6]; anhydrous ethanol): sparingly soluble
solubility in dichloromethane ([6]; dichloromethane): slightly soluble
solubility in dimethylformamide ([6]; dimethylformamide): freely soluble
solubility in methanol ([6]; methanol): soluble
solubility in water ([6]; water): nearly or completely insoluble
Structure (SMILES): O=C(c1ccccc1)c1ccc2n1CC[C@@H]2C(=O)O [(S)-ketorolac]
